≈ marks a conversion by molar mass, not a printed value.
Assays:
in vitro [1] = settings: human, MRC5 SV2 cells
Description: Selectivity index, ratio of IC50 for human MRC5 SV2 cells to IC50 for Trypanosoma cruzi Tulahuen CL2 amastigotes infected in human MRC5 SV2 cells

in vitro [2] = settings: mouse, peritoneal macrophages
Description: (§1) Cytotoxicity against mouse peritoneal Macrophage cells assessed as reduction in cell viability incubated for 3 days by fluorimetry

Trypanosoma cruzi = assay: microbe, parasite or virus in culture; settings: Tulahuen CL2, MRC-5 SV2, 168 h
Description: Antitrypanosomal activity against Trypanosoma cruzi Tulahuen CL2 amastigotes infected in human MRC5 SV2 cells incubated for 7 days by chlorophenol red beta-D-galactopyranoside substrate based spectrophotometric assay

Macrophage = assay: cells; settings: Mus musculus, 72 h
Description: as §1

in vitro [3] = settings: dog, MDCK
[4] = tested on: Trypanosoma brucei rhodesiense; assay: microbe, parasite or virus in culture; settings: STIB900, 72 h
Description: Antiprotozoal activity against Trypanosoma brucei rhodesiense STIB900 trypomastigotes incubated for 72 hrs by resazurin dye based fluorimetric analysis

physchem [5] = settings: PBS buffer, pH 7.4
Description: Kinetic solubility of compound in PBS buffer at pH 7.4

in vitro [6] = settings: human, liver microsomes
Description: Metabolic stability in human liver microsomes assessed as intrinsic clearance at 0.5 uM incubated for 30 mins by LC-MS/MS analysis

Trypanosoma brucei = assay: microbe, parasite or virus in culture; settings: Squib 427, 72 h
Description: Antitrypanosomal activity against Trypanosoma brucei Squib 427 assessed as reduction in parasite growth incubated for 72 hrs by resazurin dye based fluorimetric analysis

physchem [7] = settings: PBS buffer, pH 2
Description: Kinetic solubility of compound in PBS buffer at pH 2

in vitro [8] = settings: dog, MDCK; remark: listed apart in the source
Description: Apparent permeability across basolateral to apical side in MDCK cells

in vitro [9] = settings: human, MRC5 SV2 cells; remark: listed apart in the source
Description: (§2) Cytotoxicity against human MRC5 SV2 cells assessed as reduction in cell viability incubated for 3 days by fluorimetry

cells = settings: Homo sapiens, MRC-5 SV2, 72 h
Description: as §2

Leishmania infantum = assay: microbe, parasite or virus in culture; settings: for IC50: MHOM/MA(BE)/67/ITMAP263, 120 h; for IC90: MHOM/MA(BE)/67/ITMAP263, in Mus musculus, 120 h
Description: Antileishmanial activity against amastigote stage of Leishmania infantum MHOM/MA(BE)/67/ITMAP263 infected in mouse peritoneal macrophage assessed as parasite growth inhibition incubated for 5 days by Giemsa staining based assay

in vitro [10] = settings: mouse, liver microsomes
Description: Metabolic stability in mouse liver microsomes assessed as intrinsic clearance at 0.5 uM incubated for 30 mins by LC-MS/MS analysis

in vitro [11] = settings: mouse, peritoneal macrophages; remark: listed apart in the source
Description: Selectivity index, ratio of IC50 for mouse peritoneal macrophage to IC50 for Leishmania infantum MHOM/MA(BE)/67/ITMAP263 infected in mouse peritoneal macrophage

in vitro [12] = settings: PAMPA
Description: Effective permeability of compound by PAMPA assay

in vitro [13] = settings: human, MRC5 SV2 cells; remark: listed apart in the source
Description: Selectivity index, ratio of IC50 for human MRC5 SV2 cells to IC50 for Trypanosoma brucei rhodesiense STIB900 trypomastigotes

physchem [14] = settings: buffer, pH 7.4
Description: Lipophilicity, logD of compound at pH 7.4 by HPLC analysis

in vitro [15] = settings: mouse, liver microsomes; remark: listed apart in the source
Description: Metabolic stability in mouse liver microsomes assessed as fraction unbound at 0.5 uM incubated for 30 mins by LC-MS/MS analysis

in vitro [16] = settings: human, MRC5 SV2 cells; remark: listed apart in the source
Description: Selectivity index, ratio of IC50 for human MRC5 SV2 cells to IC50 for Trypanosoma brucei Squib 427

| SMILES | selectivity ratio (in vitro [1]) | IC90 at 72 h (in vitro [2]) | IC50 (Trypanosoma cruzi) | IC90 (Trypanosoma cruzi) | IC50 (Macrophage) | IC50 [4] | IC90 [4] | CLint scaled at 0.5 h, 0.5 µM (in vitro [6]) | microsomal CLint at 0.5 h, 0.5 µM (in vitro [6]) | IC50 (Trypanosoma brucei) | IC90 (Trypanosoma brucei) | IC90 at 72 h (in vitro [9]) | IC50 (cells) | IC50 (Leishmania infantum) | IC90 (Leishmania infantum) | CLint scaled at 0.5 h, 0.5 µM (in vitro [10]) | microsomal CLint at 0.5 h, 0.5 µM (in vitro [10]) | Papp (in vitro [12]) | selectivity ratio (in vitro [13]) | logD (physchem [14]) | further results |
| --- | --- | --- | --- | --- | --- | --- | --- | --- | --- | --- | --- | --- | --- | --- | --- | --- | --- | --- | --- | --- | --- |
| CC(C)c1cc(C(=O)N2CCCC(c3cc4ncccc4[nH]3)C2)on1 (stereo not drawn) | 8.25 to 22.1 | 32 to 64 µM | 2.9 to 3.88 µM | 7.61 to 24.3 µM | 32 to 64 µM | 32 to 38.1 µM | 32 to 58.7 µM | 67.8 mL/min/kg | 37 µL/min/mg | 32 to 55.6 µM | 32 to 64 µM | 64 µM | 64 µM | 32 to 64 µM | 32 to 64 µM | 1600 mL/min/kg | 560 µL/min/mg | – | – | – | Papp A→B (in vitro [3]): 29.4 ×10⁻⁶ cm/s; solubility kinetic (physchem [5]): 60.4 µg/mL (≈ 178 µM); solubility kinetic (physchem [7]): > 67.3 µg/mL; Papp B→A (in vitro [8]): 33.2 ×10⁻⁶ cm/s |
| CN(C(=O)c1ccccc1)c1cccc(-c2cc3ncccc3[nH]2)c1 | 3.59 | 59.7 µM | 7.25 µM | 64 µM | 45.3 µM | 9.02 µM | 35.5 µM | 83.7 mL/min/kg | 50.6 µL/min/mg | 31.9 µM | 59.1 µM | 60.9 µM | 26.1 µM | 37.4 µM | 60.5 µM | 5840 mL/min/kg | 1200 µL/min/mg | 2.78 ×10⁻⁶ cm/s | 2.89 | 3.3 | selectivity ratio (in vitro [11]): 0.707; fraction unbound at 0.5 h, 0.5 µM (in vitro [15]): 0.653; selectivity ratio (in vitro [16]): 0.849 |
| O=C(c1cc(C(F)(F)F)no1)N1CCCC(c2cc3nc(NCc4ccccc4)ccc3[nH]2)C1 (stereo not drawn) | 3.23 | 29.9 µM | 2.14 µM | 64 µM | 22.6 µM | 4.97 µM | 13 µM | 1870 mL/min/kg | 149 µL/min/mg | 7.87 µM | 14.8 µM | 13.6 µM | 6.91 µM | 6.34 µM | 23.6 µM | – | – | 0.239 ×10⁻⁶ cm/s | 1.4 | 4.4 | selectivity ratio (in vitro [11]): 1.07; fraction unbound at 0.5 h, 0.5 µM (in vitro [15]): 0.0857; selectivity ratio (in vitro [16]): 0.894 |
| CC(C)c1cc(C(=O)N2CC=C(c3cc4ncccc4[nH]3)CC2)on1 | 30.1 to 31.8 | 64 µM | 2.01 to 2.12 µM | 3.79 to 15.4 µM | 64 µM | 7.97 to 15.5 µM | 36.4 to 49.5 µM | 119 mL/min/kg | 23 to 59.2 µL/min/mg | 36.7 to 38.7 µM | 58.8 to 63.5 µM | 64 µM | 64 µM | 27.9 to 41.6 µM | – | 2650 mL/min/kg | 398 to 446 µL/min/mg | 1.54 ×10⁻⁶ cm/s | 4.14 to 8.02 | 3.23 | selectivity ratio (in vitro [11]): 2.32; Papp A→B (in vitro [3]): 14.6 ×10⁻⁶ cm/s; solubility kinetic (physchem [5]): 10.4 µg/mL (≈ 31 µM); solubility kinetic (physchem [7]): > 67.3 µg/mL; Papp B→A (in vitro [8]): 15.3 ×10⁻⁶ cm/s; selectivity ratio (in vitro [16]): 1.74 |
| O=C(c1ccc(F)cc1)N1CCCC(c2cc3ncc(Cl)cc3[nH]2)C1 (stereo not drawn) | 1.2 | 64 µM | 28.8 µM | 59.5 µM | 64 µM | 5.82 µM | 13.9 µM | 62.2 mL/min/kg | 44.6 µL/min/mg | 16.3 µM | 32.4 µM | 64 µM | 34.9 µM | 18.5 µM | 50.4 µM | 970 mL/min/kg | 235 µL/min/mg | 10.6 ×10⁻⁶ cm/s | 5.94 | 3.82 | selectivity ratio (in vitro [11]): 1.9; fraction unbound at 0.5 h, 0.5 µM (in vitro [15]): 0.775; selectivity ratio (in vitro [16]): 2.16 |
| O=C(c1ccccc1)N1CCCC(c2cn3nc(Cl)ccc3n2)C1 (stereo not drawn) | – | 64 µM | 64 µM | 64 µM | 64 µM | 7.81 µM | 14.5 µM | > 61.7 mL/min/kg | 56.9 µL/min/mg | 47.7 µM | 64 µM | 64 µM | 64 µM | 64 µM | 64 µM | > 772 mL/min/kg | 242 µL/min/mg | 23.6 ×10⁻⁶ cm/s | 8.19 | 3.18 | selectivity ratio (in vitro [16]): 1.37 |
